Residues, ends and D or L forms follow the SMILES beside them.
What was measured:
[1] = molecular target: Fibroblast growth factor receptor 2 (Homo sapiens) (UniProt P21802); conditions: Compound concentration 20.0 uM
Description: Thermal Shift Assay. Domain: start/stop: T457-E768

[2] = molecular target: T1, Peregrin (Homo sapiens) (UniProt P55201); conditions: Compound concentration 20.0 uM
T1 sequence (whole entry): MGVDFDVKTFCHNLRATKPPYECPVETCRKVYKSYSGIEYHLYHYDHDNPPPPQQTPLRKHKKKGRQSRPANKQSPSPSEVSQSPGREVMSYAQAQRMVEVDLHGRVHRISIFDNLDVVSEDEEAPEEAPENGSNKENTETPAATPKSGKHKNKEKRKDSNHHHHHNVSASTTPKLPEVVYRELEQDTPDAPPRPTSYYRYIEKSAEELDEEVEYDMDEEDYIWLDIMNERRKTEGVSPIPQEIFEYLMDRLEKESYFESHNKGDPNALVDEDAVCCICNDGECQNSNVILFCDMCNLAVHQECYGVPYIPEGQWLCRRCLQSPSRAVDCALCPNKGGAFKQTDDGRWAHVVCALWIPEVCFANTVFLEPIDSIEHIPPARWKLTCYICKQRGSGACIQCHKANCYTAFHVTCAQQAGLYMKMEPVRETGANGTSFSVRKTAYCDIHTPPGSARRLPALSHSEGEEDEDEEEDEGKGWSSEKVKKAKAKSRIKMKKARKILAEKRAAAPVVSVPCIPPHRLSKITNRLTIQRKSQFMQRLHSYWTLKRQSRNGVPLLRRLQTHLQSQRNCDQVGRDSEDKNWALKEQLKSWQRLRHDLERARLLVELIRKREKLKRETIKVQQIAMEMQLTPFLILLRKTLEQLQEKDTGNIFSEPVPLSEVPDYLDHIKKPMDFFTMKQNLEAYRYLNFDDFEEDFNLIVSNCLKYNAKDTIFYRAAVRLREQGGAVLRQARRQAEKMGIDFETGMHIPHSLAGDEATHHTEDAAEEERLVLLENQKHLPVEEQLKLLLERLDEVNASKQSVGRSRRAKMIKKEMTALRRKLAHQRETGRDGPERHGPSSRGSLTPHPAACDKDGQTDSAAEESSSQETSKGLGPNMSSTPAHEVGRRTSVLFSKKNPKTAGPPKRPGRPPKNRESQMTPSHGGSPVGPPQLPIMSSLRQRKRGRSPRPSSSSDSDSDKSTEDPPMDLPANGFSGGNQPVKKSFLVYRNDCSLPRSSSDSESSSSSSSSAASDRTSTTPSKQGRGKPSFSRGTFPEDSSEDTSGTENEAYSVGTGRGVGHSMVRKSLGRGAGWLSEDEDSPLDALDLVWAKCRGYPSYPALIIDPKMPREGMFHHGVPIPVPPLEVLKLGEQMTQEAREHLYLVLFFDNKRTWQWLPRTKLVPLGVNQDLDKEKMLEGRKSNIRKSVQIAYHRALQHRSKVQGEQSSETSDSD

Sequence of Fibroblast growth factor receptor 2 (Homo sapiens) (P21802 22-821 limits assumed): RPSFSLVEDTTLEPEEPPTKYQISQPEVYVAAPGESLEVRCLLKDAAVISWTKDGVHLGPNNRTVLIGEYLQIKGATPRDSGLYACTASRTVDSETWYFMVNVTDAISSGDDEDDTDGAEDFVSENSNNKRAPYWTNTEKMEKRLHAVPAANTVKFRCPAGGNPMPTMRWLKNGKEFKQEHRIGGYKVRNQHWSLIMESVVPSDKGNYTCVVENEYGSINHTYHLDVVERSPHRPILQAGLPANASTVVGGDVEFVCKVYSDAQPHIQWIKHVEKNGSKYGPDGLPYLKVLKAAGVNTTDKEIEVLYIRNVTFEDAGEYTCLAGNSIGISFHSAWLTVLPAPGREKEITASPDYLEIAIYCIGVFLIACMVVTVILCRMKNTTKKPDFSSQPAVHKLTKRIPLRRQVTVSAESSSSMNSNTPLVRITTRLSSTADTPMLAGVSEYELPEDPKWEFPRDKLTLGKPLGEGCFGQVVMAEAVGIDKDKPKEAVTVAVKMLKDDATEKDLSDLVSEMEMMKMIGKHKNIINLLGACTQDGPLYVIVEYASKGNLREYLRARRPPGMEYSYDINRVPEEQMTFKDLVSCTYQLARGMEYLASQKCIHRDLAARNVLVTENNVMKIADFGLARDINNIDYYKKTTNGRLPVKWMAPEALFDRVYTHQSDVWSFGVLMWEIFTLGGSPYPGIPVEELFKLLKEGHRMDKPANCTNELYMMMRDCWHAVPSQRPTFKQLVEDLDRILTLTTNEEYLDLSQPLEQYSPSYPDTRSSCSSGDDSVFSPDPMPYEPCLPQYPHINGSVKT

SMILES | ΔTm [1] [°C] | ΔTm [2] [°C]
Cc1[nH]c2c(N3CCO[C@H](CO)C3)c(C#N)c(C(F)(F)F)nc2c1Cl | 0.41 | 1.11
O=c1cc(-c2ccc(O)cc2)oc2c(CN3CCN(Cc4cccs4)CC3)c(O)cc(O)c12 | 1.05 | 3.1
O=S(=O)(O)c1ccc2cc(/N=N/c3cc(S(=O)(=O)O)c4cccnc4c3O)ccc2c1 | -0.08 | -0.89
C=Cc1cc(C(=O)Nc2ccc(C(=N)N)cc2)c(-c2ccc(C(=O)NCC3CC3)nc2C(=O)O)cc1OC | 0.02 | 2.91
CN1CCN2c3c(cccc31)[C@@H]1CN(CCCC(=O)c3ccc(F)cc3)CC[C@@H]12 | -0.37 | -0.19
N#Cc1cc2cc(CN3CCC(Nc4ncnc5sc(CC(F)(F)F)cc45)CC3)ccc2[nH]1 | 0.16 | 1.21
O=C(NO)c1cccc(C(=O)NCCc2ccccc2)c1 | 0.41 | -0.84
C[C@H]1CCCN1Cc1nc2cc(NC(=O)c3ccc4c(cnn4C)c3)ccc2[nH]1 | 0.51 | -1.47
O=c1[nH][nH]c(=O)c2cc(OCc3ccccc3F)ccc12 | 0.22 | 2.62
O=c1[nH]c(Oc2cnn(Cc3ccccc3)c2)nc2cnccc12 | -0.24 | 3.09
O=C(C=Cc1ccc(O)cc1)c1ccc(O)cc1O | 1.26 | 0.82
NC(=S)c1cccc(-c2cn(C3CCN(S(=O)(=O)C(F)(F)F)CC3)c3cc(CNC(=O)C4CNC4)ccc23)c1 | 0.25 | 5.2
CC(=O)N[C@@H](CCCCNC(=O)CSCCNC(=O)CCNC(=O)[C@H](O)C(C)(C)COP(=O)(O)OP(=O)(O)OC[C@H]1O[C@@H](n2cnc3c(N)ncnc32)[C@H](O)[C@@H]1OP(=O)(O)O)C(N)=O | 0.51 | 1.95
NS(=O)(=O)OC[C@H]1C[C@@H](Nc2ccnc3cc(-c4cccc(SC(F)(F)F)c4)nn23)[C@H](O)[C@@H]1O | -0.4 | 3.28
CCC1CCCCN1C(=O)n1ncc(C(O)(c2ccccc2)c2ccccc2)n1 (stereo unspecified) | -0.25 | -0.98
Nc1nc2cc(CC[C@H]3C[C@@H](n4ccc5c(N)ncnc54)[C@H](O)[C@@H]3O)ccc2cc1Br | -5.18 | -0.14
Cc1nn(CC(F)(F)F)cc1Nc1ncc(Br)c(NCc2ccc(S(N)(=O)=O)cc2)n1 | 2.95 | -0.36
C=CCc1cccc(CNc2nc3ccccc3n2CCC)c1O | 0.14 | 4.18
NCCOCCOCCNC(=O)Cc1ccc(Nc2nc(NCc3ccc(F)cc3)nc(NCC3CCCCC3)n2)cc1 | 0.03 | 2.13
CC(=O)N[C@H](C(=O)N[C@@H](CC(=O)O)C(=O)N[C@H](C(=O)N[C@@H](C)C(=O)N[C@H](C=O)CC(=O)O)C(C)C)C(C)C (Ac-VDVAD-aldehyde) | -0.83 | -0.92
CCc1c(-c2ccccc2)c(-c2ccccc2)nn1-c1ccccc1-c1cccc(OCC(=O)O)c1 | -1.61 | -3.01
CN1C(=O)c2c(nn(Cc3ccc(-c4cccc(F)n4)cc3)c2Nc2ccccc2)N2C1=N[C@@H]1CCC[C@@H]12 | -0.21 | -0.45
CN(C)Cc1ccc(S(=O)(=O)n2ccc(/C=C/C(=O)NO)c2)cc1 | 0.36 | -0.83

— ChEMBL document CHEMBL5724796, “Tm Shift (DSF) assay results for EUbOPEN Chemogenomics Library” (2024)
